Here are results for two molecules from patent US20260232703A1, “USE OF A SYK INHIBITOR FOR THE TREATMENT OF CHEMICAL OR RADIATION INDUCED LUNG INJURY” (Rigel Pharmaceuticals, Inc., priority 2023, published 2026).

In brackets after ≈: the same amount, converted by molar mass. Some results are limits rather than exact numbers.

Series [1] in a line: Water solubility in aqueous buffer under physiological conditions. The format is physicochemical.
The subject of series [2] is WAG/RijCmcr rats, leg-out PBI irradiated. Put plainly: Leg-out PBI rat model of radiation-induced lung injury (RILI), lung histology. The class given is in vivo. To be noted: 13.5 Gy (female) or 13 Gy (male) leg-out PBI rats; fostamatinib 10 or 20 mg/kg; H&E lung sections, 5-point scale; versus untreated irradiated rats. The text has this:
Irradiation. Leg-out PBI rat models: WAG/RijCmcr female and male rats are unilaterally irradiated, dorsal to ventral, without the use of anesthetics at 11-12 weeks of age. Irradiations are done between 8-10 am. For leg-out PBI, non-anesthetized rats are immobilized in a plastic jig and irradiated using a […] orthovoltage x-ray system (Precision X-Ray, North Branford, Connecticut). […] Doses can range from 13-14.5 Gy for female rats and 12.5-14.5 Gy for males. During irradiation, each rat is confined to a chamber which allows irradiation of 2 rats simultaneously. One hind limb of each rat is carefully externalized from the chamber and shielded with a 0.25-inch lead block. […] Whole mount lung sections (4 μm thick) are stained with hematoxylin and eosin (H&E) and also stained with tryptase antibody (IMGENEX catalogue #IMG-80250, 1:150) (Gao et al. Radiat Res 179: 465-74; 2013. [PubMed: 23480564]) and five randomly selected fields (20×) of each lung are evaluated. The foamy macrophages, vascular, and alveolar wall thickness are scored as described previously (Medhora et al. Radiat Res 182: 545-55; 2014. [PubMed: 25361399]; Medhora et al. J Radiat Res 56: 248-60; 2015. [PubMed: 25368342]); injury is measured on a 5-point scale and a mean composite lung injury score is calculated. Mast cells are assessed by positive tryptase staining in five randomly selected fields (20×) of each lung. […]

The term solubility denotes the dissolved amount per volume that the medium holds. Read a high solubility as a readily soluble substance. `COc1cc(Nc2ncc(F)c(Nc3ccc4c(n3)NC(=O)C(C)(C)O4)n2)cc(OC)c1OC` [Compound 1, N4-(2,2-Dimethyl-3-oxo-4H-5-pyrid[1,4]oxazin-6-yl)-5-fluoro-N2-(3,4,5-trimethoxyphenyl)-2,4-pyrimidinediamine] had a solubility in series [1] of 1 to 2 µg/mL (≈ 2.13 to 4.25 µM).
For the molecule `COc1cc(Nc2ncc(F)c(Nc3ccc4c(n3)N(COP(=O)(O)O)C(=O)C(C)(C)O4)n2)cc(OC)c1OC` [Compound 4], the “mean composite lung injury score” value in series [2] was “lower”. Also, the solubility in series [1] is above 5000 µg/mL. The “solubility of phosphate prodrug relative to active drug (Compound 1)” value in series [1] (Compound 4 vs Compound 1) is “approximately 2000 times greater”.
